According to ChEMBL document CHEMBL1765052, “Developing potent human uric acid transporter 1 (hURAT1) inhibitors” (J Med Chem, 2011):

Assays:
[1] = molecular target: T1, Solute carrier family 22 member 12 (Homo sapiens, UniProt Q96S37); assay: Inhibition of human URAT1 expressed in xenopus oocyte assessed as inhibition of [14C]-labelled urate uptake at 50 uM after 60 mins by liquid scintillation counting; details: 1 h
T1 sequence (Q96S37 whole entry): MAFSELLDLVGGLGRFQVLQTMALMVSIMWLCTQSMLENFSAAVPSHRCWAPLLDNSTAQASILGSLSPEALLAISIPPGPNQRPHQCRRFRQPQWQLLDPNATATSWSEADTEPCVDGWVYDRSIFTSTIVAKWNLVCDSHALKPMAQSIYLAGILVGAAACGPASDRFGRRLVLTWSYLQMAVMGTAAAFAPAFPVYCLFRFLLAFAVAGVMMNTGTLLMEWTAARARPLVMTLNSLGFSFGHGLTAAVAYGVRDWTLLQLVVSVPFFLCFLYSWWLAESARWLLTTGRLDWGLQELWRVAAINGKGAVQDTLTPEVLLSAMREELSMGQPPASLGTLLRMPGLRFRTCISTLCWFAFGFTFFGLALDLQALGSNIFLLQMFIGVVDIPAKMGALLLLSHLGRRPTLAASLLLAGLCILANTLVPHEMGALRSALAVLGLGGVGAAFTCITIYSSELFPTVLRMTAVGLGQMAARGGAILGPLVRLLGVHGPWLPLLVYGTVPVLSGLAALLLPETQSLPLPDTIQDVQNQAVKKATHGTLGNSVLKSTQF

[2] = molecular target: T1, Solute carrier family 22 member 12; assay: Inhibition of human URAT1 expressed in xenopus oocyte assessed as inhibition of [14C]-labelled urate uptake after 60 mins by liquid scintillation counting

Structure (SMILES) | inhibition at 50 µM [1] | IC50 [2]
CCc1oc2cc(O)ccc2c1C(=O)c1cc(Br)c(O)c(Br)c1 | 99.8% | 
CCc1oc2ccccc2c1C(=O)c1ccc(OC)cc1 | 13.3% | 
CCc1oc2ccc(OC)cc2c1C(=O)c1ccc(OC)cc1 | 24.3% | 
CCc1cc2c(C(=O)c3ccc(OC)cc3)c(OC)ccc2o1 | 6.1% | 
CCc1cc2cc(OC)cc(C(=O)c3ccc(OC)cc3)c2o1 | 5.2% | 
CCc1oc2cc(OC)ccc2c1C(=O)c1ccc(OC)cc1 | 6.2% | 
CCc1cc2c(C(=O)c3ccc(OC)cc3)cc(OC)cc2o1 | 1.5% | 
CCc1oc2c(OC)cccc2c1C(=O)c1ccc(OC)cc1 | 17.2% | 
CCc1cc2c(C(=O)c3ccc(OC)cc3)ccc(OC)c2o1 | 7.4% | 
CCc1oc2ccc(OC)cc2c1C(=O)c1ccc(O)cc1 | 92.7% | 2.46 µM
CCc1oc2ccc(O)cc2c1C(=O)c1ccc(OC)cc1 | 12.9% | 
CCc1oc2ccc(O)cc2c1C(=O)c1ccc(O)cc1 | 96.5% | 2.49 µM
CCc1cc2c(C(=O)c3ccc(O)cc3)c(OC)ccc2o1 | 88.2% | 6.68 µM
CCc1cc2c(C(=O)c3ccc(OC)cc3)c(O)ccc2o1 | 28.7% | 
CCc1cc2c(C(=O)c3ccc(O)cc3)c(O)ccc2o1 | 51.5% | 
CCc1cc2cc(OC)cc(C(=O)c3ccc(O)cc3)c2o1 | 60% | 33.7 µM
CCc1cc2cc(O)cc(C(=O)c3ccc(OC)cc3)c2o1 | 9.3% | 
CCc1cc2cc(O)cc(C(=O)c3ccc(O)cc3)c2o1 | 41% | 
CCc1oc2cc(OC)ccc2c1C(=O)c1ccc(O)cc1 | 92.7% | 
CCc1oc2cc(O)ccc2c1C(=O)c1ccc(OC)cc1 | 48.3% | 
CCc1oc2cc(O)ccc2c1C(=O)c1ccc(O)cc1 | 92.1% | 1.13 µM

Structure (SMILES) | inhibition at 50 µM [1] | IC50 [2]
CCc1cc2c(C(=O)c3ccc(O)cc3)cc(OC)cc2o1 | 62.4% | 19.7 µM
CCc1cc2c(C(=O)c3ccc(OC)cc3)cc(O)cc2o1 | 12.4% | 
CCc1cc2c(C(=O)c3ccc(O)cc3)cc(O)cc2o1 | 41% | 
CCc1oc2c(O)cccc2c1C(=O)c1ccc(OC)cc1 | 18.2% | 
CCc1cc2c(C(=O)c3ccc(OC)cc3)ccc(O)c2o1 | 0.8% | 
CCc1cc2c(C(=O)c3ccc(O)cc3)ccc(O)c2o1 | 93.8% | 3.94 µM
CCc1oc2ccc(OC)cc2c1C(=O)c1cc(Br)c(O)c(Br)c1 | 99.9% | 
CCc1oc2ccc(O)cc2c1C(=O)c1cc(Br)c(O)c(Br)c1 | 99.9% | 0.189 µM
CCc1cc2c(C(=O)c3cc(Br)c(O)c(Br)c3)c(OC)ccc2o1 | 99.6% | 0.358 µM
CCc1cc2c(C(=O)c3cc(Br)c(O)c(Br)c3)c(O)ccc2o1 | 99.9% | 0.083 µM
CCc1cc2cc(OC)cc(C(=O)c3cc(Br)c(O)c(Br)c3)c2o1 | 99% | 
CCc1cc2cc(O)cc(C(=O)c3cc(Br)c(O)c(Br)c3)c2o1 | 99.8% | 
CCc1oc2cc(OC)ccc2c1C(=O)c1cc(Br)c(O)c(Br)c1 | 99.9% | 
CCc1cc2c(C(=O)c3cc(Br)c(O)c(Br)c3)cc(Br)c(O)c2o1 | 99.9% | 0.177 µM
CCc1oc2cc(Br)c(O)c(Br)c2c1C(=O)c1ccc(OC)cc1 | 76.5% | 23.5 µM
CCc1oc2c(Br)c(O)c(Br)cc2c1C(=O)c1ccc(OC)cc1 | 99.8% | 0.667 µM
CCc1cc2c(C(=O)c3ccc(OC)cc3)cc(Br)c(O)c2o1 | 99.3% | 0.772 µM
CCc1oc2ccccc2c1C(=O)c1ccc(O)cc1 [BENZARONE] | 90.8% | 
CCc1oc2ccccc2c1C(=O)c1cc(Br)c(O)c(Br)c1 [BENZBROMARONE] | 99.9% | 
CCCN(CCC)S(=O)(=O)c1ccc(C(=O)O)cc1 [PROBENECID] | 35.7% | 
